Several values for one entry are separate records, joined by “and”; a condition that tells them apart may be missing. Equal entries are not always repeated. Ends that are not written are not given here. * marks the point of attachment. TAMRA = tetramethylrhodamine (fluorescent label); DABCYL = CN(C)c1ccc(/N=N/c2ccc(C(=O)*)cc2)cc1
Key:
FAM-TAR RNA = assay: Quenching of FAM-TAR RNA by DABCYL-labelled ADP-1; type: binding, HIV; settings: 20 nM FAM-TAR, FIG. 19
Experimental: It is also possible to place a fluorescent group on the RNA target and a quenching group on the reporter molecule. […] The DABCYL-ADP-1 was pre-treated in the presence of 1% TFA at room temperature for 5 minutes prior to dilution into binding buffer (0.01% Triton X-100, 5 μg/ml BSA, 1% DMSO, 50 mM Tris-HCl pH 7.6, 20 mM KCl) and incubated on ice prior to complex formation.
Reactions were equilibrated at room temperature for 15 minutes prior to analysis in the Wallac Victor2 plate reader. The reactions were excited at 485 nm and fluorescence emission recorded at 535 nm. The fluorescence emission signal of the 20 nM FAM-TAR is progressively quenched after addition of increasing amounts of DABCYL-ADP-1 peptide. The experimental data shown in FIG. 19 was analysed in GraphPad PRISMTM using a non linear regression fit for single site binding.

TAR bulge RNA = assay: Dabcyl-peptide binding to Fam-labelled RNA (quenching), TAR; parameters: species or system HIV; settings: 110 mM KCl
Description: (§1) A representative subset comprising 40 peptide sequences from the total of 243 possible sequences was synthesised and is shown in Table 6. The peptides from the library are: No. 3 (SEQ ID NO:11), 4 (SEQ ID NO:12), 5 (SEQ ID NO:13), 6 (SEQ ID NO:14), 7 (SEQ ID NO:15), 8 (SEQ ID NO:16), 9 (SEQ ID NO:17), 10 (SEQ ID NO:18), 11 (SEQ ID NO:19), 12 (SEQ ID NO:20), 13 (SEQ ID NO:21), 14 (SEQ ID NO:22), 15 (SEQ ID NO:23), 16 (SEQ ID NO:24), 17 (SEQ ID NO:25), 18 (SEQ ID NO:26), 19 (SEQ ID NO:27), 20 (SEQ ID NO:28), 21 (SEQ ID NO:29), 22 (SEQ ID NO:30), 23 (SEQ ID NO:31), 24 (SEQ ID NO:32), 25 (SEQ ID NO:33), 26 (SEQ ID NO:34), 27 (SEQ ID NO:35), 28 (SEQ ID NO:36), 29 (SEQ ID NO:37), 30 (SEQ ID NO:38), 31 (SEQ ID NO:39), 32 (SEQ ID NO:40), 33 (SEQ ID NO:41), 34 (SEQ ID NO:42), 35 (SEQ ID NO:43), 36 (SEQ ID NO:44), 37 (SEQ ID NO:45), 38 (SEQ ID NO:46), 39 (SEQ ID NO:47), 40 (SEQ ID NO:48), 41 (SEQ ID NO:49), 42 (SEQ ID NO:50). These peptides were assayed for their ability to bind to range of RNA sequences carrying fluorescein attached to the 5′ end, as shown in FIG. 25.
(§2) FIG. 26. presents binding data for the peptide sequence 5 (KKQKR) (SEQ ID NO: 13) and the 4 RNA sequences. Reactions (100 μl) containing Fam-labelled RNA (10 nM) were mixed with increasing concentrations of Dabcyl-labelled ADP-1 peptide (up to 250 nM) in 50 mM Tris/Cl, pH7.4, 20 mM or 110 mM KCl (as indicated), 5 μg/ml BSA, 0.01% Triton X-100, 1% DMSO. Fluorescence (excitation 490 nm/emission at 535 nm) was determined using a Victor plate reader.
(§3) Dissociation constants were determined by fitting a binding isotherm (1-site-binding) to the data using the equation:
(§4) Y=((Fmax−Fmin)−((Fmax−Fmin)*X/(Kd+X)))+Fmin
(§5) where Fmax is fluorescence in the absence of quencher, Fmin is fluorescence at saturation, and X is peptide concentration.

RRE RNA = assay: Dabcyl-peptide binding to Fam-labelled RNA (quenching), RRE; parameters: species or system HIV; settings: RRE, 110 mM KCl
Description: as §1, §2, §3, §4, §5

GTPase-LHL RNA = assay: Dabcyl-peptide binding to Fam-labelled RNA (quenching), GTPase LHL; settings: GTPase-LHL, 110 mM KCl
Description: as §1, §2, §3, §4, §5

ss-19mer RNA = assay: Dabcyl-peptide binding to Fam-labelled RNA (quenching), single stranded RNA; settings: ss-19mer, 110 mM KCl
Description: as §1, §2, §3, §4, §5

DABCYL-RRE RNA = assay: Quenching of TAMRA-labelled Rev peptide by DABCYL-RRE RNA; type: binding, HIV; settings: 20 nM TAMRA-Rev, increasing DABCYL-RRE, FIG. 21
Experimental: (§6) In the experiment shown in FIG. 21, 20 nM TAMRA-Rev was incubated with increasing concentrations of DABCYL-RRE. The TAMRA-Rev was pre-treated in the presence of 1% TFA at room temperature for 5 minutes prior to dilution in to storage buffer (0.01% Triton X-100, 5 μg/ml BSA, 1% DMSO, 50 mM Tris-HCl pH 8, 50 mM KCl) and incubated on ice prior to complex formation. Reactions were equilibrated at room temperature for 15 minutes prior to analysis in the Wallac Victor2 plate reader. The reactions were excited at 544 nm and fluorescence emission recorded at 570 nm. The fluorescence emission signal of the 20 nM TAMRA-Rev alone was subtracted from each signal obtained in the presence of increasing amounts of DABCYL-RRE and plotted as a function of DABCYL-RRE concentration (FIG. 21) in GraphPad PRISMTM using a non linear regression fit for single site binding.

DABCYL-TAR RNA = assay: Quenching of TAMRA-labelled Rev peptide by DABCYL-TAR RNA; type: binding, HIV; settings: 20 nM TAMRA-Rev, increasing DABCYL-TAR, FIG. 22
Experimental: as §6, with “20” for “In the experiment shown in FIG. 21, 20”, “DABCYL-TAR.” for “DABCYL-RRE.”, “into” for “in to”, “DABCYL-TAR” for “DABCYL-RRE”, “22)” for “21)”

Row | Substance | Kd (FAM-TAR RNA) | Kd (TAR bulge RNA) | Kd (RRE RNA) | Kd (GTPase-LHL RNA) | Kd (ss-19mer RNA) | Kd (DABCYL-RRE RNA) | Kd (DABCYL-TAR RNA)
1 | DABCYL-Phe-Thr-Thr-Lys-Ala-Leu-Gly-Ile-Ser-Tyr-Gly-Arg-Lys-Lys-Arg-Arg-Gln-Arg-Arg-Arg-Pro-Pro-Gln-Gly-Ser-Gln-Thr-His-Gln-Val-Ser-Leu-Ser-Lys-Gln ({DABCYL}-FTTKALGISYGRKKRRQRRRPPQGSQTHQVSLSKQ) [DABCYL-ADP-1] | 0.033 µM | 0.035 µM and 0.041 µM | 0.039 µM | 0.131 µM | 0.511 µM | – | –
2 | TAMRA-Asp-Thr-Arg-Gln-Ala-Arg-Arg-Asn-Arg-Arg-Arg-Arg-Trp-Arg-Glu Arg-Gln-Arg ({TAMRA}-DTRQARRNRRRRWRERQR) [TAMRA-Rev] | – | – | – | – | – | 0.137 ± 0.023 µM | 11 µM

— patent US6573045B1, “Methods and kits for discovery of RNA-binding compounds” (Ribotargets, Ltd., priority 1998, dated 2003)
